Experimental data from US20060014641A1 (priority 2004, published 2006).

Experiments:
[1] = system: boll weevil larvae; assay: Cotton seed diet assay; format: in vivo; conditions: cottonseed flour diets, after six days, in the presence of cotton plant components
Protocol: Two treatment diets are made by mixing 30 g of one of two types of cottonseed flour into 170 mL of a 1.6% agar solution at 50% C, containing 0.13% propionic acid, 0.014% phosphoric acid, and 30 mg each of streptomycin sulfate and chlortetracycline. Before mixing, 10% KOH was used to adjust the pH to 6.2. One test diet utilized raw cottonseed flour (Sigma) as the nutrient source; the other utilized Pharmamedia.™. (Traders Protein), a flour made up of cottonseed embryos. The diets were incubated in a water bath at 40% C. Dilutions of the oxalate are incorporated into the diets as described above. Boll weevil larvae are allowed to feed and mortality rates are determined after six days.

[2] = system: boll weevil larvae; assay: Homogenized cotton leaf tissue assay; format: in vivo; conditions: cotton leaf tissue agar diet, evaluated six days later
Protocol: Homogenized Cotton Leaf Tissue Assay In order to test oxalate against boll weevil larvae in a host tissue diet environment, a study is conducted in which cotton leaf tissue is the only nutritional component of an agar-based diet. Two cotton leaves (each approx. 5 inches wide) with stems are homogenized at 50% C into 170 mL of a 1.6% agar solution containing 0.13% propionic acid, 0.014% phosphoric acid, and 30 mg each of streptomycin sulfate and chlortetracycline. Before addition of the leaves, 10% KOH is used to adjust the pH of the agar solution to 6.2. The leaf “diet” is allowed to cool to 40% C. Dilutions of oxalate and a water control are incorporated into the leaf “diet”, poured into insect diet trays and allowed to cool. Boll weevil eggs are added to the diet wells. The assay is evaluated six days later. […] This will illustrate that the oxalate is insecticidal in the presence of intact cotton tissue and cells.

[3] = system: boll weevil larvae; assay: Boll weevil larvae bioassay (agar liquid diet); conditions: in vivo
Protocol: Boll Weevil Larvae Bioassay
Assays for activity against boll weevil larvae are carried out by incorporating the test sample into a agar liquid diet similar to that for southern corn rootworm [Marrone P. G., Ferri F. D., Mosley T. R., Meinke L. J., “Improvements in laboratory rearing of the southern corn rootworm, Diabrotica undecimpunctata howardi Barber (Coleoptera: Chrysomelidae) on artificial diet and corn,” Journal of Economic Entomology, 78:290-3, 1985]. The test sample is substituted for the 20% water component. Neonate larvae are allowed to feed on the diet and mortality and growth stunting are evaluated.

[4] = system: Lepidopteran larvae; assay: Lepidopteran larvae bioassay (artificial diet); parameters: species or system lepidopteran insects; conditions: in vivo
Protocol: Lepidopteran Larvae Bioassay
Lepidopteran larvae are tested on artificial diet treated with various amounts of oxalate for a number of days.

[5] = system: adult boll weevils; assay: Boll weevil reproduction test; format: in vivo; conditions: oxalate in standard diet
Protocol: Preoviposition: Approximately 220 adult boll weevils, collected within 2 days of emergence, are divided into two groups. […] The adults are allowed to feed and mate for four days at which time mortality is determined. Oviposition study: These two groups of adults are then divided into two subgroups and individually placed on artificial, oxalate-containing or control bolls. […] After three days at 27% C, the adults are removed and ten bolls from each of the four groups are removed and examined for eggs. The remaining bolls are incubated for an additional 7 days at 27% C to allow development of larvae. The bolls are then dissected and the eggs and larvae, dead and surviving, are counted. • Group 1=Control Adults placed on control bolls • Group 2=Control Adults placed on treated bolls • Group 3=oxalate-fed adults placed on control bolls • Group 4=oxalate-fed adults placed on treated bolls Mode of Action Studies

Compound: O=C(O)C(=O)O [Oxalate, oxalic acid]
- mortality of boll weevil larvae [1]: lethal
- insecticidal activity in the presence of cotton leaf tissue [2]: maintains its insecticidal activity
- effect on boll weevil larvae [3]: lethal
- mortality and stunting of larvae of lepidopteran insects [4]: mortality and stunting
- effect on reproductive cycle of adult boll weevils [5]: affect the reproductive cycle
- effect on reproductive cycle of adult boll weevils ([5]; listed as Oxlate): interrupt the reproductive cycle
